Test results from ChEMBL document CHEMBL1201862, “PubChem BioAssay data set” (2004).
Calls of active or inactive are those of the source.

Tests used:
BJ [1] = assay: cells; format: functional, cell-based; settings: Homo sapiens
[2] = molecular target: Photoreceptor-specific nuclear receptor (Homo sapiens, UniProt Q9Y5X4); format: functional, cell-based;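 further: CHO-S cells with Gal4-NCOR and VP16-NR2E3 two-hybrid luciferase reporter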
[3] = molecular target: T1, Type-1 angiotensin II receptor (Homo sapiens, UniProt P30556); assay: AT1 receptor antagonists, dose response, selectivity assay for APJ receptor antagonist project, cell-based, uHTS hits (AID 463214); format: functional;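 further: antagonist potency against angiotensin II stimulated AT1 response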
T1 sequence (P30556 whole entry): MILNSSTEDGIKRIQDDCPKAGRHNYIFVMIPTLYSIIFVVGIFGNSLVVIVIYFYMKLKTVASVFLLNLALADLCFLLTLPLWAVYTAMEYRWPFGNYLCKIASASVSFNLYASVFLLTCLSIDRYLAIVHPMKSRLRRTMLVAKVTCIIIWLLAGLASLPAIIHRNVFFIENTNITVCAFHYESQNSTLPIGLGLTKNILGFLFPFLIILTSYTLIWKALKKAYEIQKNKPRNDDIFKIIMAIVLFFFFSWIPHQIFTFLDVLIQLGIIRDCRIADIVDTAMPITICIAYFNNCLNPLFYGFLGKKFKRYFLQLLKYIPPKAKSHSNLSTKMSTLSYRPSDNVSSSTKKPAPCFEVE

[4] = HEK293T cytotoxicity, dose response, cytotoxicity control for miR-122 modulator project, cell-based, inhibitor set, cherry-pick, set 2 (AID 720697); format: functional
[5] = HEK293T cytotoxicity, dose response, cytotoxicity control for miR-122 modulator project, cell-based, activator set, cherry-pick (AID 720690); format: functional;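 further: HEK293T human cells scored for general mammalian cytotoxicity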
BJ [6] = assay: cytotoxicity toward Ras-transformed BJeLR fibroblasts, dose response, cell-based, alamar blue fluorescence, cherrypicked samples (AID 2631); format: functional; settings: Homo sapiens;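 further: confirmatory dose-response assay in RAS-dependent BJ fibroblasts engineered with TERT, LT and ST, with cytotoxicity read by fluorescence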
Beta-galactosidase [7] = molecular target: T2, Beta-galactosidase (Escherichia coli, UniProt Q8VNN2); format: functional
[8] = miR-122 activators in hepatoma reporter cells, dose response, cell-based, Huh7 psiCHECK-miR122, Renilla luciferase, cherry-picked (AID 651956); format: functional;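 further: huh7 hepatoma cells stably carrying a psiCHECK-2 miR-122 sensor plasmid; renilla luciferase signal reporting endogenous miR-122 activity after 48 h compound exposure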
[9] = molecular target: T3, Heat shock factor protein 1 (Mus musculus, UniProt P38532); assay: HSF1 potentiators in luciferase reporter cells, confirmation, cell-based, NIH3T3, luminescence, dose retest (AID 435004); format: functional;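 further: stress induced by proteasome inhibitor MG132 added 30 min after compound; luciferase reporter driven by HSF1 response element in NIH3T3 cells; actives raise luminescence as potentiators of the MG132 stress response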
T3 sequence (P38532 whole entry): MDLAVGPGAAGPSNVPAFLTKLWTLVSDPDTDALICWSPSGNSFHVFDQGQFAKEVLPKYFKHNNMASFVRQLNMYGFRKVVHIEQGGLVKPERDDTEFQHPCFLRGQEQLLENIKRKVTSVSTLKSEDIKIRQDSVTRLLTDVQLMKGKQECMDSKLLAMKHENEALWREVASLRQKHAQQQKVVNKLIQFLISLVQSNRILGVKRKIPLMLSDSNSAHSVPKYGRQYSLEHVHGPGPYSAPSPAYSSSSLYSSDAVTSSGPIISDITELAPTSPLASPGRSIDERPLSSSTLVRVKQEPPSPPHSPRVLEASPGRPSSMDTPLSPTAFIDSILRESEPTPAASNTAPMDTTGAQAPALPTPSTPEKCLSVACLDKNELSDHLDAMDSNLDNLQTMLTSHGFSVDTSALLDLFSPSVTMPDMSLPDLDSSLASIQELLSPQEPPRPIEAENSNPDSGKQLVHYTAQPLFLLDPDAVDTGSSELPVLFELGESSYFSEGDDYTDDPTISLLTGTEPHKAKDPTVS

[10] = cytotoxicity toward DRD oncogenic fibroblasts, dose response, cell-based, non-viral oncogenic, luminescence (AID 1934); format: functional; settings: Homo sapiens
BJ [11] = assay: cytotoxicity toward BJ-TERT-LT-ST fibroblasts, dose response, cell-based, RAS-independent, luminescence (AID 1935); format: functional; settings: Homo sapiens;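 further: BJ fibroblasts immortalized with TERT plus LT and ST oncogenes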
[12] = tested on: Streptococcus sp. 'group A'; assay: growth inhibition of control SK(-) GAS strain, dose response, counter-screen for streptokinase expression inhibitor project, luminescence, kanamycin, BacTiterGlo, confirmation (AID 1900); format: functional, organism-based
[13] = molecular target: T4, Kappa-type opioid receptor (Homo sapiens, UniProt P41145); format: functional
[14] = molecular target: T4, Kappa-type opioid receptor; format: functional; remark: listed apart in the source
cells [15] = format: functional, cell-based
Beta-galactosidase [16] = molecular target: T2, Beta-galactosidase; assay: PubChem AID 485352; format: functional
BJ [17] = assay: cytotoxicity toward BJ-TERT fibroblasts, dose response, cell-based, RAS-independent, luminescence (AID 1933); format: functional; settings: Homo sapiens
[18] = molecular target: Heat shock protein HSP 90-alpha (Homo sapiens, UniProt P07900); format: functional, organism-based
Streptococcus = assay: Group A Streptococcus viability loss, dose response, counter-screen for streptokinase expression inhibitor project, luminescence, BacTiterGlo (AID 1915); format: functional, organism-based;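 further: potency for reduction of bacterial viability or growth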
cells [19] = format: functional, cell-based; remark: listed apart in the source
INS1 = assay: beta cell apoptosis inhibitors, cytokine rescue, dose response, luminescence, retest (AID 449756); format: functional, cell-based; settings: Rattus norvegicus;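 further: cell death triggered by IL-1 beta plus TNF-alpha plus IFN-gamma mixture; protective hits raise ATP signal compared with cytokine alone wells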
Nonstructural protein 1 = Nonstructural protein 1 (Influenza A virus, UniProt Q194T2); format: functional, Influenza A virus (A/California/07/2009(H1N1))
Protein RecA = molecular target: T5, Protein RecA (Mycobacterium tuberculosis, UniProt P9WHJ3); assay: Fluorescence Cell-Free Homogeneous Dose Retest to Identify Inhibitors of RecA-Intein Splicing Activity. [Related pubchem assays (depositor defined):AID2097, AID2223, AID489010, AID492950]; format: functional
T5 sequence (P9WHJ3 whole entry): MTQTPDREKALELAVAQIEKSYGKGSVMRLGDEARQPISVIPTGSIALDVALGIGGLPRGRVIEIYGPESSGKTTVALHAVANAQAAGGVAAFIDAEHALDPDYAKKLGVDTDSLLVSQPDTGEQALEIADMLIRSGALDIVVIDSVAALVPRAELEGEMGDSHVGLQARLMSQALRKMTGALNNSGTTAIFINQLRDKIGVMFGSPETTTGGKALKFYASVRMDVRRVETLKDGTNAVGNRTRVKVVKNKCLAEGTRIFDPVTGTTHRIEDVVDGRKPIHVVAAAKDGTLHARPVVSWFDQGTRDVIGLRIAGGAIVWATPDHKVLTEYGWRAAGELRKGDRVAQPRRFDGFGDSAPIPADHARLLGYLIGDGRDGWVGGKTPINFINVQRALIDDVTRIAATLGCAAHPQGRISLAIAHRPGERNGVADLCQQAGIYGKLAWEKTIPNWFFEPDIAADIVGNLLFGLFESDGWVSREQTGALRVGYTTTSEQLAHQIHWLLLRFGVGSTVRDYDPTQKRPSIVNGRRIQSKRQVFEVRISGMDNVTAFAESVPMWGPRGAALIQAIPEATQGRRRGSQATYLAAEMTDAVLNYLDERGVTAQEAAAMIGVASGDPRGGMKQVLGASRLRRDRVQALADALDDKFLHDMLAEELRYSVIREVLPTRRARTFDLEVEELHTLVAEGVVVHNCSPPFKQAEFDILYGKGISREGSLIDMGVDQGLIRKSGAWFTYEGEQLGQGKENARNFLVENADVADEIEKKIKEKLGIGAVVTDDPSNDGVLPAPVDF

[20] = molecular target: Tyrosyl-DNA phosphodiesterase 2 (Homo sapiens, UniProt O95551); assay: human TDP2 enzyme inhibitors, dose response, biochemical, epi absorbance, IC50 (AID 743297)
[21] = molecular target: T6, Replicative DNA helicase DnaB (Mycobacterium tuberculosis, UniProt P9WMR3); assay: DnaB intein splicing inhibitors, dose response, biochemical, cell-free fluorescence (AID 449749); format: functional
T6 sequence (P9WMR3 whole entry): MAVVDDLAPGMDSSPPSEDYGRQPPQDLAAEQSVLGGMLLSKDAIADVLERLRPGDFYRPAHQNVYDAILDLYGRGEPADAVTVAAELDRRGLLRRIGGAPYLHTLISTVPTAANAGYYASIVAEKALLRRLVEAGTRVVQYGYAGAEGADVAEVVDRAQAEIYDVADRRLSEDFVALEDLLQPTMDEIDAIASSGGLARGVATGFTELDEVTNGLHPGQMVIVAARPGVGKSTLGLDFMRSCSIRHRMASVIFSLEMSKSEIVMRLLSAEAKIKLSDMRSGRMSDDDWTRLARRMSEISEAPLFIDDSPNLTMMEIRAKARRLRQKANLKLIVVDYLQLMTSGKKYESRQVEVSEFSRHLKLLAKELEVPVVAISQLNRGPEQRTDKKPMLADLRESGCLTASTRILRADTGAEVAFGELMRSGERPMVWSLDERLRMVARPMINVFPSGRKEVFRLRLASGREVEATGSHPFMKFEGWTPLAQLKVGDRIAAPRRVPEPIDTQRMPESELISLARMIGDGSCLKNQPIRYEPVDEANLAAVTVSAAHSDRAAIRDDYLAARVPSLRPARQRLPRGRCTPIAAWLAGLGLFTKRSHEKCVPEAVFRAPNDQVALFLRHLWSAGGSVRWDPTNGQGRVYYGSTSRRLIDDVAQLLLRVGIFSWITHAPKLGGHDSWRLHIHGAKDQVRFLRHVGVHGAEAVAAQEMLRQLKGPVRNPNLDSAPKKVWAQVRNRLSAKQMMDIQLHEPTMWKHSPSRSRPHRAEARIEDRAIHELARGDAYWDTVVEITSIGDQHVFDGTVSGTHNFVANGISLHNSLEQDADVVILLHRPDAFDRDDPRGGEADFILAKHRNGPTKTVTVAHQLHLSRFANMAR

[22] = molecular target: T7, Apoptotic protease-activating factor 1 (Homo sapiens, UniProt O14727); format: functional
T7 sequence (O14727 whole entry): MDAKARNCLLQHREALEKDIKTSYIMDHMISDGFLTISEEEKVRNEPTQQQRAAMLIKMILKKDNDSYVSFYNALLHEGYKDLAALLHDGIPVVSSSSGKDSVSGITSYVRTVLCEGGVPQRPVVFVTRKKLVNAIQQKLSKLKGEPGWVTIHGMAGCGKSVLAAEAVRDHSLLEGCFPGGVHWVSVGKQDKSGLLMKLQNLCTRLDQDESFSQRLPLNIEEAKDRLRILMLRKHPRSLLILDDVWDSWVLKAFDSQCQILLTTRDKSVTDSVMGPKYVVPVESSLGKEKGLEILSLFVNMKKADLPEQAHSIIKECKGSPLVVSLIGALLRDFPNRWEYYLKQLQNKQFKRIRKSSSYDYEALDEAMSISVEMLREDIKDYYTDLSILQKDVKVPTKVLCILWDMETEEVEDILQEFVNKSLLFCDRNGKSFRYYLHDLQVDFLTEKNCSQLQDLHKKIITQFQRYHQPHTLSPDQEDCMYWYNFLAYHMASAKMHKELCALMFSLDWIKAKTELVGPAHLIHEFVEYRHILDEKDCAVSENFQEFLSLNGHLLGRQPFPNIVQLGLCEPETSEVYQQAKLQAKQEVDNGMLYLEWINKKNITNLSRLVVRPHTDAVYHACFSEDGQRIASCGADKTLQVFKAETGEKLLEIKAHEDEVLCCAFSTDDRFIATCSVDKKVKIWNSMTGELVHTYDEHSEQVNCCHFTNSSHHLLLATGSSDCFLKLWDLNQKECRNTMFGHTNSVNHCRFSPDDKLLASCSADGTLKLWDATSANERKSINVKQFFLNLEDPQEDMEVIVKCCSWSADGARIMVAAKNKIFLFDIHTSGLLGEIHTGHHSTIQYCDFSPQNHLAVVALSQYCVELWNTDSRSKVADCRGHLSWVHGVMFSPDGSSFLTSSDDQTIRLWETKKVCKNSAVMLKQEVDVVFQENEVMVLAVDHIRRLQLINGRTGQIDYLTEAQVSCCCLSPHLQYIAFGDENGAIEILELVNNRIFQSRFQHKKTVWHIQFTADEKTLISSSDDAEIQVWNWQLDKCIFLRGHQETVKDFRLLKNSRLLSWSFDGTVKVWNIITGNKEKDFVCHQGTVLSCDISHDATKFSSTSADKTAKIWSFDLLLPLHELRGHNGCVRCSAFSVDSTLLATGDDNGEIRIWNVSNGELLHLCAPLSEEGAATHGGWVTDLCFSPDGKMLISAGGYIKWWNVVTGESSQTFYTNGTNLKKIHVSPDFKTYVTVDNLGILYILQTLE

[23] = MITF: Counter assay: A375 proliferation Measured in Cell-Based System Using Plate Reader - 2084-03_Inhibitor_Dose_DryPowder_Activity_Set8.; format: functional; settings: A-375
[24] = TRPM1 promoter luciferase reporter signal decrease, dose response, MITF inhibitor project, cell-based, SK-MEL-5, dry powder, set 8 (AID 624430); format: functional
[25] = MITF Orthogonal Assay: SK-MEL-5 CTG Assay Measured in Cell-Based System Using Plate Reader - 2084-02_Inhibitor_Dose_DryPowder_Activity_Set7.; format: functional
[26] = Late stage assay provider results from the probe development effort to identify selective inhibitors of heat shock protein 90 (HSP90): Absorbance-based cell proliferation assay in SKBR3 cells.; format: functional; settings: SK-BR-3
[27] = Late stage assay provider results from the probe development effort to identify selective inhibitors of heat shock protein 90 (HSP90): Absorbance-based cell proliferation assay in MCF7 cells.; format: functional

T4 sequence (P41145 whole entry): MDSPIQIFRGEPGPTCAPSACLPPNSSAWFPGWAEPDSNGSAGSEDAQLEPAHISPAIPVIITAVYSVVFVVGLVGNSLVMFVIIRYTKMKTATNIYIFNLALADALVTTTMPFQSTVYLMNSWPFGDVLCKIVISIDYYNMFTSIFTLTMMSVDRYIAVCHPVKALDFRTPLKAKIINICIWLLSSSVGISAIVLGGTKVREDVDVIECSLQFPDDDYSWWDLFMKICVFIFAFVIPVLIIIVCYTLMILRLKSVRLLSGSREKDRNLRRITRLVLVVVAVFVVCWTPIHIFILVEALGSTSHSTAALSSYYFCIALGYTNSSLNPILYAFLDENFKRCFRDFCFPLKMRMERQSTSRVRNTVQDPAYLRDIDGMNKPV
T2 sequence (Q8VNN2 whole entry): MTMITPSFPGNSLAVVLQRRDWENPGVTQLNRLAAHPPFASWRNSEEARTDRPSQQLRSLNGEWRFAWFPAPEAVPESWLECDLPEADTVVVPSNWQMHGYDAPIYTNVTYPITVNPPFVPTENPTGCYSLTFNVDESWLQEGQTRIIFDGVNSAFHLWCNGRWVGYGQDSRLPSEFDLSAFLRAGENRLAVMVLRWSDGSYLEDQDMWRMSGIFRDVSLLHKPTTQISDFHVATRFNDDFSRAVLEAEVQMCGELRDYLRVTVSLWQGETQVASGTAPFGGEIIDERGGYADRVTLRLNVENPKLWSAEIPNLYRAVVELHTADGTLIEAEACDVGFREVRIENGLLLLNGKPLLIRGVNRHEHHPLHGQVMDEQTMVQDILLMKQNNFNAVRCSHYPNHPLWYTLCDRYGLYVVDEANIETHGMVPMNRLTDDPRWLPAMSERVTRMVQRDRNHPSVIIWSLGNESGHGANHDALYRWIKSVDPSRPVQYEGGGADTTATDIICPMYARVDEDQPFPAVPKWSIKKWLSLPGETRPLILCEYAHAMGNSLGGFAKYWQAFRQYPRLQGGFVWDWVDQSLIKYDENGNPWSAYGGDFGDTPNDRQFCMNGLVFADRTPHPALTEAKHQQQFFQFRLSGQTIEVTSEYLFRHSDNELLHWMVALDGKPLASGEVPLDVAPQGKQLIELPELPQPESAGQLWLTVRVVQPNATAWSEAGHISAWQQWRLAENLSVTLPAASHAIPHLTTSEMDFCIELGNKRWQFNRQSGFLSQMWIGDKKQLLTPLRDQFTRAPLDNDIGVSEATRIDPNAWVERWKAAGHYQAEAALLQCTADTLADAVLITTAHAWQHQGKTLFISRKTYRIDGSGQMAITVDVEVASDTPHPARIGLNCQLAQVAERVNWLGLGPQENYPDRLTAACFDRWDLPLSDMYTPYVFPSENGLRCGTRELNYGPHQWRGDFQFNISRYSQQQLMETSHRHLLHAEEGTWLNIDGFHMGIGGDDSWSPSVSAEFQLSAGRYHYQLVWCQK
Sequence of Nonstructural protein 1 (Q194T2 whole entry): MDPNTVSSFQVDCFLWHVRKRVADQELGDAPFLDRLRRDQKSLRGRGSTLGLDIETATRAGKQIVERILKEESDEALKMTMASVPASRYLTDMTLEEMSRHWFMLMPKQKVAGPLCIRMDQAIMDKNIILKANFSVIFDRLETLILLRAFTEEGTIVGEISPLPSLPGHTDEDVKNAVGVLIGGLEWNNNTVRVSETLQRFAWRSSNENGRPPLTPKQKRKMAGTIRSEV
Sequence of Tyrosyl-DNA phosphodiesterase 2 (O95551 whole entry): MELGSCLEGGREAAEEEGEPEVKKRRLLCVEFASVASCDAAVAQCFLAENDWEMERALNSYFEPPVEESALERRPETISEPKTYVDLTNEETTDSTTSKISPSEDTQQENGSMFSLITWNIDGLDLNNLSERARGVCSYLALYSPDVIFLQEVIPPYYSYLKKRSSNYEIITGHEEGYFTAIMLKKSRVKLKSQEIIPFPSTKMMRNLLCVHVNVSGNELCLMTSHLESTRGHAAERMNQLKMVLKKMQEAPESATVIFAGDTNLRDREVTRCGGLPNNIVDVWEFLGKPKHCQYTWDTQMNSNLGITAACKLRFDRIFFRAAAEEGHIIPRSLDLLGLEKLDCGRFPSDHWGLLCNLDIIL
Sequence of Photoreceptor-specific nuclear receptor (Q9Y5X4 whole entry, the tested form may be a part): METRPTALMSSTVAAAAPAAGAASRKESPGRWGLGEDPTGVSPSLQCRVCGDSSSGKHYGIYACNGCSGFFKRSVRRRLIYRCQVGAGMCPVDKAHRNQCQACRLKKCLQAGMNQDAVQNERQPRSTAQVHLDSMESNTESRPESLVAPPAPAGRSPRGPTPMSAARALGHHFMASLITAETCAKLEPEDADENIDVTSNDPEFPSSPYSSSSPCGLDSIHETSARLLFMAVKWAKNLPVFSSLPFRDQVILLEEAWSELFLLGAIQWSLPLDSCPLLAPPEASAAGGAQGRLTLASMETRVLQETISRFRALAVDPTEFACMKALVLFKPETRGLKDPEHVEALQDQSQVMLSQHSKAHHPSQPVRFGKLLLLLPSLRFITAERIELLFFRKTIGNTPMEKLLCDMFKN

Cc1cccnc1Nc1nc(-c2ccccn2)cs1
EC50 (BJ [1]): 2.18 µM (active) | IC50 [2]: 3.9 µM (active) | IC50 [3]: 2.24 µM (active) | AC50 [4]: 503 nM (active) | AC50 [5]: 2.3 µM (active) | EC50 (BJ [6]): 661 nM (active) | EC50 (Beta-galactosidase [7]): > 31.5 µM (inactive) | AC50 [8]: 43.8 µM (active) | EC50 [9]: 3.33 µM (active) | EC50 [10]: 15.3 µM (inconclusive) | EC50 (BJ [11]): 6.23 µM (inconclusive) | EC50 [12]: 1.1 µM (active) | IC50 [13]: > 32 µM | IC50 [14]: 2.9 µM (active) | EC50 (cells [15]): 3.45 µM (active) | EC50 (Beta-galactosidase [16]): > 40 µM (inactive) | EC50 (BJ [17]): 1.46 µM (active) | AC50 [18]: 4.65 µM (active) | EC50 (Streptococcus): 6.4 µM (active) | EC50 (cells [19]): 3.13 µM (active) | AC50 (INS1): 290 nM (active) | IC50 (Nonstructural protein 1): 2.83 µM (active)

CC(=O)Nc1ccc(S(=O)(=O)NC2=C(N3CCN(c4ccc(F)cc4)CC3)C(=O)c3ccccc3C2=O)cc1
EC50 (Protein RecA): 10.4 µM (active) | IC50 [20]: > 128 µM (inactive) | EC50 [9]: > 260 µM (inactive) | AC50 [21]: 4.98 µM (active) | IC50 [22]: 17.4 µM (active) | AC50 (INS1): 4960 nM (active)

COc1ccc(NC2=C(N3CCN(C)CC3)C(=O)c3ccccc3C2=O)cc1
AC50 [23]: > 70 µM (inactive) | AC50 [24]: 24.9 µM (active) | AC50 [25]: 16.4 µM (active)

O=C1OC(=O)/C(=C\NCCN2CCOCC2)C=C1Br
IC50 [26]: 61 µM (inactive) | IC50 [27]: 67 µM (inactive)
